Data: ChEMBL document CHEMBL5518247 (J Med Chem, 2024)
pIC50: −log10 of the molar value.

What was measured:
[1] = Oral bioavailability in ICR mouse at 20 mg/kg measured up to 48 hrs by LC-MS/MS analysis; format: ADME, organism-based; conditions: in vivo
[2] = Oral absorption in C57BL/6J mouse at 20 mg/kg measured up to 48 hrs by LC-MS/MS analysis; format: ADME, organism-based; conditions: in vivo
[3] = Inhibition of recombinant PKCgamma (unknown origin) expressed in baculovirus infected in Sf9 cells using biotin-Ahx-peptide as substrate; parameters: species or system Homo sapiens

| SMILES | bioavailability [1] [%] | Fa at 48 h [2] [%] | pIC50 [3] |
| --- | --- | --- | --- |
| C=CC(=O)Nc1ccc2[nH]c(=O)n(C3CCN(Cc4ccc(-c5nc6cc[nH]c(=O)c6cc5-c5ccccc5)cc4)CC3)c2c1 [Borussertib] | < 5 | 39.6 | – |
| Cc1n[nH]c2ccc(-c3cncc(OC[C@H](N)Cc4c[nH]c5ccccc45)c3)cc12 | – | – | 5.85 |
